From PubChem BioAssay (NCI)
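Step 1: Grow cells in 96-well plates. Step 2: Expose to compound for 48 hours at 5 concentrations. Step 3: Interpolate endpoints linearly; if unreached, use highest concentration. At the GI50, growth is halved. TGI is the concentration that stops growth completely.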

Columns and labels:
Experiment in all cases: NCI tumour cell line growth inhibition, 48 h
HT29 colon = tested on: HT29 colon
HOP-62 NSCLC = tested on: HOP-62 NSCLC
RXF 393 renal = tested on: RXF 393 renal
MDA-MB-231 breast = tested on: MDA-MB-231 breast
TK-10 renal = tested on: TK-10 renal
NCI/ADR-RES ovarian = tested on: NCI/ADR-RES ovarian
OVCAR-4 ovarian = tested on: OVCAR-4 ovarian
LOX IMVI melanoma = tested on: LOX IMVI melanoma
U251 CNS = tested on: U251 CNS
SK-MEL-2 melanoma = tested on: SK-MEL-2 melanoma
A498 renal = tested on: A498 renal
IGROV1 ovarian = tested on: IGROV1 ovarian
CAKI-1 renal = tested on: CAKI-1 renal
UACC-257 melanoma = tested on: UACC-257 melanoma
HL-60(TB) leukemia = tested on: HL-60(TB) leukemia
MALME-3M melanoma = tested on: MALME-3M melanoma
T-47D breast = tested on: T-47D breast
HCC-2998 colon = tested on: HCC-2998 colon
MDA-MB-435 = tested on: MDA-MB-435
NCI-H522 lung = tested on: NCI-H522 lung
HOP-92 NSCLC = tested on: HOP-92 NSCLC
OVCAR-5 ovarian = tested on: OVCAR-5 ovarian
HCT-116 colon = tested on: HCT-116 colon
MOLT-4 leukemia = tested on: MOLT-4 leukemia
ACHN renal = tested on: ACHN renal
NCI-H226 lung = tested on: NCI-H226 lung
SF-539 CNS = tested on: SF-539 CNS
SW-620 colon = tested on: SW-620 colon
KM12 colon = tested on: KM12 colon

C#CCN(C)CCCOc1ccc(NCc2ccc(/C=C/C(=O)NO)cc2)cc1Cl
GI50 (HT29 colon): 345 nM | TGI (HT29 colon): 4770 nM | GI50 (HOP-62 NSCLC): 601 nM | TGI (HOP-62 NSCLC): 3240 nM | GI50 (RXF 393 renal): 249 nM | TGI (RXF 393 renal): 799 nM | GI50 (MDA-MB-231 breast): 502 nM | TGI (MDA-MB-231 breast): 4500 nM | GI50 (TK-10 renal): 387 nM | TGI (TK-10 renal): 3290 nM | GI50 (NCI/ADR-RES ovarian): 295 nM | TGI (NCI/ADR-RES ovarian): 5350 nM | GI50 (OVCAR-4 ovarian): 1400 nM | TGI (OVCAR-4 ovarian): 19400 nM | GI50 (LOX IMVI melanoma): 475 nM | TGI (LOX IMVI melanoma): 1360 nM | GI50 (U251 CNS): 502 nM | TGI (U251 CNS): 2420 nM | GI50 (SK-MEL-2 melanoma): 2050 nM | TGI (SK-MEL-2 melanoma): 6610 nM | GI50 (A498 renal): 417 nM | TGI (A498 renal): 1730 nM | GI50 (IGROV1 ovarian): 361 nM | TGI (IGROV1 ovarian): 1570 nM | GI50 (CAKI-1 renal): 544 nM | TGI (CAKI-1 renal): 2210 nM | GI50 (UACC-257 melanoma): 419 nM | TGI (UACC-257 melanoma): 18200 nM | GI50 (HL-60(TB) leukemia): 331 nM | TGI (HL-60(TB) leukemia): 17300 nM | GI50 (MALME-3M melanoma): 242 nM | TGI (MALME-3M melanoma): 1590 nM | GI50 (T-47D breast): 338 nM | TGI (T-47D breast): > 31000 nM | GI50 (HCC-2998 colon): 382 nM | TGI (HCC-2998 colon): 1910 nM | GI50 (MDA-MB-435): 330 nM | TGI (MDA-MB-435): 1280 nM | GI50 (NCI-H522 lung): 407 nM | TGI (NCI-H522 lung): 2580 nM | GI50 (HOP-92 NSCLC): 340 nM | TGI (HOP-92 NSCLC): 1410 nM | GI50 (OVCAR-5 ovarian): 330 nM | TGI (OVCAR-5 ovarian): 2670 nM | GI50 (HCT-116 colon): 274 nM | TGI (HCT-116 colon): 1700 nM | GI50 (MOLT-4 leukemia): 330 nM | TGI (MOLT-4 leukemia): 17100 nM | GI50 (ACHN renal): 379 nM | TGI (ACHN renal): 1690 nM | GI50 (NCI-H226 lung): 1490 nM | TGI (NCI-H226 lung): 4170 nM | GI50 (SF-539 CNS): 717 nM | TGI (SF-539 CNS): 2900 nM | GI50 (SW-620 colon): 235 nM | TGI (SW-620 colon): 856 nM | GI50 (KM12 colon): 1020 nM | TGI (KM12 colon): 6800 nM
